Results published in ChEMBL document CHEMBL1201862, “PubChem BioAssay data set” (2004).
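Dose response: 5 concentrations. Exposure: 48 h. Format: 96-well plates. Endpoint: linear interpolation; highest concentration if not reached. The concentration for 50% growth inhibition is given as GI50.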 The source made the active and inactive calls. No stated cut-off is given here; in the data, active = GI50 up to about 1.1 µM and inactive = higher.

Assays:
Assay in all cases: inhibition of tumour cell growth, NCI panel, 48 h
M14 = system: M14
UACC-62 = system: UACC-62
CCRF-CEM = system: CCRF-CEM
RPMI-8226 = system: RPMI-8226
NCI-H522 = system: NCI-H522
U-251 = system: U-251
HCT-116 = system: HCT-116
MOLT-4 = system: MOLT-4
HCC 2998 = system: HCC 2998
NCI-H460 = system: NCI-H460
SF-295 = system: SF-295
EKVX = system: EKVX
ACHN = system: ACHN
COLO 205 = system: COLO 205
SW-620 = system: SW-620
NCI-H23 = system: NCI-H23
IGROV-1 = system: IGROV-1

Measured: GI50

OCCN(CCO)c1cccc(N(CCO)CCO)n1
inactive: M14 > 100 µM | UACC-62 58.2 µM | CCRF-CEM > 100 µM | RPMI-8226 > 100 µM | NCI-H522 > 100 µM | U-251 > 100 µM | HCT-116 > 100 µM | MOLT-4 > 100 µM | HCC 2998 > 10 µM | NCI-H460 > 100 µM | SF-295 > 100 µM | EKVX > 100 µM | ACHN > 100 µM | COLO 205 > 100 µM | SW-620 > 100 µM

CCCCN(CCCC)CC(C(=O)Nc1ccccc1)/C(C)=N\NC(=O)c1ccncc1 (centres undefined)
inactive: M14 > 100 µM | UACC-62 59.3 µM | RPMI-8226 > 100 µM | NCI-H522 > 100 µM | U-251 > 100 µM | HCT-116 92 µM | MOLT-4 > 100 µM | HCC 2998 > 100 µM | NCI-H23 > 100 µM | IGROV-1 > 100 µM | NCI-H460 46 µM | SF-295 > 100 µM | ACHN > 100 µM | COLO 205 > 100 µM | SW-620 > 100 µM

Cc1cccc2c(O)cc(=O)oc12
inactive: M14 > 100 µM | UACC-62 > 100 µM | CCRF-CEM > 100 µM | RPMI-8226 > 100 µM | U-251 > 100 µM | HCT-116 > 100 µM | MOLT-4 > 100 µM | NCI-H23 > 100 µM | IGROV-1 > 100 µM | NCI-H460 > 100 µM | SF-295 > 100 µM | EKVX > 100 µM | ACHN > 100 µM | SW-620 > 100 µM

CCOC(=O)c1cc2c(cn1)[nH]c1cccc(N)c12
inactive: M14 > 100 µM | UACC-62 > 100 µM | CCRF-CEM > 100 µM | NCI-H522 > 100 µM | U-251 > 100 µM | HCT-116 > 100 µM | MOLT-4 61.5 µM | HCC 2998 > 100 µM | NCI-H23 > 100 µM | IGROV-1 > 100 µM | NCI-H460 > 100 µM | SF-295 > 100 µM | ACHN > 100 µM | COLO 205 > 100 µM | SW-620 > 100 µM

C=CCN(N=O)C(=O)NCCCC(NC(C)=O)C(=O)NCc1ccccc1 (centres undefined)
inactive: M14 > 100 µM | UACC-62 > 100 µM | CCRF-CEM > 100 µM | RPMI-8226 > 100 µM | NCI-H522 > 100 µM | U-251 > 100 µM | MOLT-4 > 100 µM | NCI-H23 > 100 µM | IGROV-1 > 100 µM | NCI-H460 > 100 µM | SF-295 > 100 µM | EKVX > 100 µM | ACHN > 100 µM | COLO 205 > 100 µM | SW-620 > 100 µM

COC1CC(OC)C2OC(c3ccccc3)OCC2O1 (centres undefined)
inactive: M14 > 100 µM | UACC-62 > 100 µM | CCRF-CEM > 100 µM | NCI-H522 > 100 µM | U-251 > 100 µM | HCT-116 > 100 µM | MOLT-4 > 100 µM | HCC 2998 > 100 µM | NCI-H23 > 100 µM | IGROV-1 > 100 µM | NCI-H460 > 100 µM | SF-295 > 100 µM | EKVX > 100 µM | ACHN > 100 µM | SW-620 > 100 µM

Cn1ncc2cc3c(Nc4ccc(Cl)cc4)cccc3nc21
inactive: M14 18.8 µM | UACC-62 15.1 µM | CCRF-CEM 15.1 µM | RPMI-8226 10.9 µM | NCI-H522 1.75 µM | MOLT-4 6.82 µM | HCC 2998 21 µM | NCI-H23 22.2 µM | IGROV-1 15.3 µM | NCI-H460 8.61 µM | SF-295 14.2 µM | EKVX 18.1 µM | ACHN 15 µM | COLO 205 13.7 µM | SW-620 13.9 µM

CC(C)(C)C(=O)Cc1cc2c(cc1C(=O)O)S(=O)(=O)NC(C(C)(C)C)=C2
inactive: M14 > 100 µM | UACC-62 > 100 µM | CCRF-CEM > 100 µM | RPMI-8226 > 100 µM | NCI-H522 > 100 µM | U-251 > 100 µM | HCT-116 > 100 µM | MOLT-4 > 100 µM | NCI-H23 > 100 µM | NCI-H460 > 100 µM | SF-295 > 100 µM | EKVX > 100 µM | ACHN > 100 µM | COLO 205 > 100 µM | SW-620 > 100 µM

O=C(O)C12C=CC(C1)c1ccccc12 (centres undefined)
inactive: M14 > 100 µM | UACC-62 > 100 µM | CCRF-CEM > 100 µM | RPMI-8226 > 100 µM | U-251 > 100 µM | HCT-116 > 100 µM | MOLT-4 > 100 µM | HCC 2998 > 100 µM | NCI-H23 > 100 µM | IGROV-1 > 100 µM | NCI-H460 > 100 µM | SF-295 > 100 µM | ACHN > 100 µM | COLO 205 > 100 µM | SW-620 > 100 µM

COc1ccc(C2S/C(=C\c3cc(OC)c(OC)c(OC)c3)C(=O)N2NC(=O)Cc2ccccc2)cc1 (centres undefined)
inactive: M14 > 100 µM | UACC-62 > 100 µM | CCRF-CEM > 100 µM | RPMI-8226 > 100 µM | NCI-H522 > 100 µM | U-251 > 100 µM | HCT-116 89.9 µM | MOLT-4 44.3 µM | NCI-H23 > 100 µM | IGROV-1 > 100 µM | NCI-H460 > 100 µM | SF-295 > 100 µM | ACHN > 100 µM | COLO 205 > 100 µM | SW-620 > 100 µM
